Test results as given in ChEMBL document CHEMBL4602732, “Optimizing Pyrazolopyrimidine Inhibitors of Calcium Dependent Protein Kinase 1 for Treatment of Acute and Chronic Toxoplasmosis” (J Med Chem, 2020).
Activity calls are given as the source filed them. The rule behind the calls is not given here.

Legend:
Toxoplasma gondii [1] = experiment: Protection against reactivation of type 2 Toxoplasma gondii ME49 infection in sulfadiazin-treated Ifngr1-/- CD1 mouse assessed as increase in mouse survival at 60 to 120 mg/kg, po administered twice daily via gavage for 8 days measured up to 30 days; format: functional, organism-based
Toxoplasma gondii [2] = experiment: Antiparasitic activity against type 1 Toxoplasma gondii RH tachyzoites infected in CD1 mouse assessed as reduction in parasite dissemination at 60 mg/kg, po administered once daily via gavage for 7 days by bioluminescence assay; format: functional, organism-based
[3] = Time at which plasma concentration stays above in vitro EC50 for antiparasitic activity against 2F clone of type 1 Toxoplasma gondii RH tachyzoites expressing luciferase infected in HFF in CD1 mouse at 30 mg/kg, po; format: ADME, organism-based; conditions: in vivo
[4] = Protein binding in mouse brain assessed as unbound fraction; format: ADME, tissue-based
Cytochrome P450 2C19 = Cytochrome P450 2C19 (Homo sapiens, UniProt P33261); experiment: Inhibition of CYP2C19 in human liver microsomes using S-mephenytoin as substrate measured after 10 mins by LC-MS/MS analysis; format: ADME
Sequence of Cytochrome P450 2C19 (P33261 whole entry): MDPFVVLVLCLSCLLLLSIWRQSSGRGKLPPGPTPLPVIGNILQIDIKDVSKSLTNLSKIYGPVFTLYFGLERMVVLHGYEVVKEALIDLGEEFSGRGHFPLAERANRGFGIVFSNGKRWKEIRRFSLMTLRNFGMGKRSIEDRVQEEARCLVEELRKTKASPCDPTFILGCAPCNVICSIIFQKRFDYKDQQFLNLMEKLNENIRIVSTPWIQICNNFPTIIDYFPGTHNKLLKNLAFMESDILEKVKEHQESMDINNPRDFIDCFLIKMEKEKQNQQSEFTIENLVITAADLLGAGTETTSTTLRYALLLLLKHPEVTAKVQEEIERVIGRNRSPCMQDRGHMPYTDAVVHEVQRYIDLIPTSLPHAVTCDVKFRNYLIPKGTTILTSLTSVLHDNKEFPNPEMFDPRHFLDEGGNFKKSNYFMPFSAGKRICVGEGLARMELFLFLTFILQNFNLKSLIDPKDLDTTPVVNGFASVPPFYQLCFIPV

[5] = Kinetic solubility of the compound in pH 7.4 phosphate buffer measured after 24 hrs by UV-HPLC analysis; format: physicochemical; conditions: pH 7.4, 24 h
Toxoplasma gondii [6] = experiment: (§1) Protection against reactivation of type 2 Toxoplasma gondii ME49 infection in sulfadiazin-treated Ifngr1-/- CD1 mouse assessed as reduction in mouse death at 60 mg/kg, po administered twice daily via gavage for 8 days measured up to 30 days; format: functional, organism-based
Toxoplasma gondii [7] = experiment: Antiparasitic activity against type 2 Toxoplasma gondii ME49 tachyzoites infected in HFF assessed as reduction in parasite growth; format: functional, organism-based
[8] = Ratio of drug level in central nervous system to plasma in CD1 mouse at 10 mg/kg, po administered via gavage measured after 8 hrs by LC-MS/MS analysis; format: ADME, organism-based, CNS/Plasma; conditions: central nervous system and plasma
Toxoplasma gondii [9] = experiment: Antiparasitic activity against Toxoplasma gondii type III CTG tachyzoites infected in HFF assessed as reduction in parasite growth; format: functional, organism-based
Toxoplasma gondii [10] = experiment: Protection against reactivation of type 2 Toxoplasma gondii ME49 infection in sulfadiazin-treated Ifngr1-/- CD1 mouse assessed as increase in weight gain at 60 mg/kg, po administered twice daily via gavage for 21 days measured up to 30 days; format: functional, organism-based
Toxoplasma gondii [11] = experiment: Antiparasitic activity against type 1 Toxoplasma gondii RH tachyzoites infected in CD1 mouse assessed as reduction in mouse death at 15 mg/kg, po administered four times daily via gavage for 7 days by bioluminescence assay; format: functional, organism-based
Toxoplasma gondii [12] = experiment: Antiparasitic activity against type 1 Toxoplasma gondii RH tachyzoites infected in CD1 mouse assessed as reduction in parasite dissemination at 15 mg/kg, po administered four times daily via gavage for 7 days by bioluminescence assay; format: functional, organism-based
[13] = target: T1, Alpha-2A adrenergic receptor (Homo sapiens, UniProt P08913); experiment: Antagonist activity at recombinant human Gi/Go-coupled ADRA2A expressed in CHOK1 cells assessed as reduction in UK14304-induced inhibition of forskolin-stimulated cAMP accumulation; format: cell-based; conditions: cho-k1
T1 sequence (P08913 whole entry): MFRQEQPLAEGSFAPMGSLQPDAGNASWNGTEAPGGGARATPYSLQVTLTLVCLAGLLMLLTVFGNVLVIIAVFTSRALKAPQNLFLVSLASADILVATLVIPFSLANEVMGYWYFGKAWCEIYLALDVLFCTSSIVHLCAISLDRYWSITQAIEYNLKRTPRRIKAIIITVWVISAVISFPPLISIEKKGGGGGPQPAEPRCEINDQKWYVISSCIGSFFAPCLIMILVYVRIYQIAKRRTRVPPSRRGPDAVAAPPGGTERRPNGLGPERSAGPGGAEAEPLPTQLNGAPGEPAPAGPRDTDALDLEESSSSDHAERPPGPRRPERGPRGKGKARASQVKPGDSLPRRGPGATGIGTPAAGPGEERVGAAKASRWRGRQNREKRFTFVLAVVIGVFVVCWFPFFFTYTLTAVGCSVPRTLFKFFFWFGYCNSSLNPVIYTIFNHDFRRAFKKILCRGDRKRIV

Toxoplasma gondii [14] = experiment: Antiparasitic activity against type 1 Toxoplasma gondii RH tachyzoites infected in CD1 mouse assessed as reduction in parasite expansion at 15 mg/kg, po administered four times daily via gavage for 7 days by bioluminescence assay; format: functional, organism-based
Toxoplasma gondii [15] = experiment: Antiparasitic activity against type 1 Toxoplasma gondii RH tachyzoites infected in CD1 mouse assessed as […] at 30 mg/kg, po administered twice daily via gavage for 7 days followed by lung and brain isolation on 15 days post-infection and co-culture with naive CD1 mouse; format: functional
Toxoplasma gondii [16] = experiment: Protection against reactivation of type 2 Toxoplasma gondii ME49 infection in sulfadiazin-treated Ifngr1-/- CD1 mouse assessed as reduction in serological conversion at 60 mg/kg, po administered twice daily via gavage for 21 days followed by brain isolation on 30 days post-infection and co-culture with Ifngr1-/- CD1 mouse; format: functional, organism-based
Toxoplasma gondii [17] = experiment: Antiparasitic activity against type 1 Toxoplasma gondii RH tachyzoites infected in CD1 mouse assessed as reduction in parasite dissemination at 30 mg/kg, po administered twice daily via gavage for 7 days by bioluminescence assay; format: functional, organism-based
Toxoplasma gondii [18] = experiment: Antiparasitic activity against type 1 Toxoplasma gondii RH tachyzoites infected in CD1 mouse assessed as reduction in mouse death at 60 mg/kg, po administered once daily via gavage for 7 days followed by lung and brain isolation on 15 days post-infection and co-culture with naive CD1 mouse; format: functional, organism-based
Toxoplasma gondii [19] = experiment: as §1, with “reduction in parasite infection at 60” for “reduction in mouse death at 60”, “30 days by luciferase reporter gene based bioluminescence assay” for “30 days”; format: functional, organism-based

For `Nc1ncnc2c1c(Oc1cc(C(F)(F)F)ccn1)nn2C1CC1`, the Activity (Toxoplasma gondii [1]) was “Active”, the Activity (Toxoplasma gondii [2]) was “Active” and the “T>EC50” value [3] was 8 h. The fraction unbound [4] was 0.101, the EC50 (Cytochrome P450 2C19) was 5.78 µM and the Kinetic_solubility [5] was 191 µM. The Activity (Toxoplasma gondii [6]) was “Active”, the EC50 (Toxoplasma gondii [7]) was 0.26 µM and the Kp at 8 h [8] was 0.96. For the same molecule, the EC50 (Toxoplasma gondii [9]) was 0.168 µM, the Activity (Toxoplasma gondii [10]) was “Active” and the Activity (Toxoplasma gondii [11]) was “Active”. For the same molecule, the Activity (Toxoplasma gondii [12]) was “Active”, the “inhibition (INH)” value [13] was 51% and the Activity (Toxoplasma gondii [14]) was “Active”. For the same molecule, the survival at 30 mg/kg (Toxoplasma gondii [15]) was 20%, the Activity (Toxoplasma gondii [16]) was “Active” and the Activity (Toxoplasma gondii [17]) was “Active”. For the same molecule, the Activity (Toxoplasma gondii [18]) was “inactive” and the Activity (Toxoplasma gondii [19]) was “inactive”.
